By GI50 is commonly meant the concentration at which growth is held to half of that of the control. High values mean lower sensitivity of the cells, low ones greater sensitivity of the cells. The term pIC50 denotes −log10 of the IC50, conventionally taken in molar units. Read a high pIC50 as a low IC50. One may read the inhibition as the percentage by which the read-out fell short of the control. Low readings indicate a weak effect, high ones a strong effect.

For one assay, the system named is A549. Briefly: Inhibition of human non-small cell lung cancer A549 cell proliferation. The format is functional.
A further assay concerns HCT-116. Briefly: Compound was tested for growth inhibition of human colon carcinoma HCT116 cell line. Format: functional.
For the next assay, the system named is NCI-H460. Briefly: Compound was tested for growth inhibition of human non-small cell lung cancer NCI-H460 cell line. Format: functional.
Assay [1] in a line: Compound was tested for inhibition of tubulin polymerisation.
For a further assay, the system named is A498. Briefly: Compound was tested for growth inhibition of multidrug resistant tumor A498 cell line. Format: functional. To be noted: Homo sapiens.
Another assay has as its system HCT-15. Briefly: Compound was tested for growth inhibition of multidrug resistant tumor HCT-15 cell line. Format: functional. The note with it: Homo sapiens.
The subject of the next assay is MCF7. Briefly: Compound was tested for growth inhibition of MCF-7 cell line (non multidrug resistant). Format: functional. The note with it: Homo sapiens.
The test system of a further assay is NCI/ADR-RES. Briefly: Compound was tested for growth inhibition of multidrug resistant tumor MCF-7/ADR cell line. Format: functional. To be noted: Homo sapiens.
The next assay concerns NCI-H226. Briefly: Compound was tested for growth inhibition of multidrug resistant tumor NCI-H226 cell line. Format: functional. The note with it: Homo sapiens.
Assay [2] is described as follows: Compound was tested for inhibition of tubulin polymerisation at 1 uM.

pIC50: −log10 of the molar value.

Regarding `CCOC(=O)N1CCc2cc(S(=O)(=O)N3C[C@H](c4ccccc4)NC3=O)ccc21`, the GI50 in the assay with A549, in the assay with HCT-116 and in the assay on NCI-H460 was 80 nM in each case. This molecule also showed a pIC50 in assay [1] of 5.82.
For `O=C(NCCN1CCOCC1)N1CCc2cc(S(=O)(=O)N3C[C@H](c4ccccc4)NC3=O)ccc21`, the GI50 in the assay on A549 amounted to 2800 nM; in the assay on HCT-116, 1200 nM; in the assay on NCI-H460 it was 1000 nM.
In the case of `Nc1ccc(C(=O)Nc2ccc(S(=O)(=O)N3C[C@H](c4ccccc4)NC3=O)cc2Cl)cc1`, the GI50 in the assay with A549, with HCT-116 and in the assay with NCI-H460 was 60 nM each time. The pIC50 in assay [1] is 5.26.
For the molecule `Nc1ccc(C(=O)N2CCc3cc(S(=O)(=O)N4C[C@H](c5ccccc5)NC4=O)ccc32)cc1`, the GI50 in the assay with A549 worked out at 20 nM; with A498, 1200 nM; in the assay with HCT-15, 120 nM; with MCF7, 10 nM; in the assay with NCI/ADR-RES, 2000 nM; with HCT-116, 10 nM. Moreover, the GI50 with NCI-H226 was 100 nM; in the assay with NCI-H460, 20 nM. In addition, the pIC50 in assay [1] was 5.82.
On to `O=C(c1cc(Cl)nc(Cl)c1)N1CCc2cc(S(=O)(=O)N3C[C@H](c4ccccc4)NC3=O)ccc21`, for which the GI50 in the assay with A549 stood at 380 nM; in the assay with HCT-116, 380 nM; in the assay on NCI-H460 it was 700 nM. This molecule showed a pIC50 in [1] of 4.66.
On to `O=C(Cc1cccs1)N1CCc2cc(S(=O)(=O)N3C[C@H](c4ccccc4)NC3=O)ccc21`, for which the GI50 was 7 nM in the assay with A549, 6 nM with HCT-116 and 7 nM in the assay with NCI-H460. Also, in assay [2], the inhibition turned out to be 82%. The molecule also showed a pIC50 in assay [1] of more than 6.00.
As to `O=C(c1cccs1)N1CCc2cc(S(=O)(=O)N3C[C@H](c4ccccc4)NC3=O)ccc21`, the GI50 in the assay on A549 is 20 nM; in the assay on HCT-116 it was 10 nM; in the assay with NCI-H460, 20 nM. Also, the pIC50 in [1] was 5.80.
Turning to `O=C(c1ccncc1)N1CCc2cc(S(=O)(=O)N3C[C@H](c4ccccc4)NC3=O)ccc21`, the results for the GI50 in the assay with A549, in the assay with HCT-116 and in the assay on NCI-H460 were 130 nM, 80 nM and 90 nM, respectively. This molecule also gave a pIC50 in assay [1] of 4.99.
On the same counts, the results for `O=C(c1ccc([N+](=O)[O-])o1)N1CCc2cc(S(=O)(=O)N3C[C@H](c4ccccc4)NC3=O)ccc21` are 950 nM, 270 nM, 950 nM and 4.40.
With `CC(=O)O[C@H]1C(=O)[C@@]2(C)[C@H]([C@H](OC(=O)c3ccccc3)[C@]3(O)C[C@H](OC(=O)[C@H](O)[C@@H](NC(=O)c4ccccc4)c4ccccc4)C(C)=C1C3(C)C)[C@]1(OC(C)=O)CO[C@@H]1C[C@@H]2O` [PACLITAXEL], the GI50 with A549 is 10 nM; in the assay with A498 it was 3500 nM; in the assay on HCT-15, 300 nM; in the assay with MCF7, 10 nM; with NCI/ADR-RES, 8000 nM; with HCT-116, less than 1 nM. In addition, the GI50 in the assay on NCI-H226 was 20000 nM; in the assay on NCI-H460, 7 nM.
As to `CCOC(=O)Nc1ccc(S(=O)(=O)N2C[C@H](c3ccccc3)NC2=O)cc1C`, the GI50 with A549 amounted to 40 nM; in the assay with A498, 130 nM; in the assay with HCT-15 it was 100 nM; in the assay with MCF7, 150 nM; in the assay with NCI/ADR-RES, 150 nM; with HCT-116, 70 nM. Further, the figures for the GI50 with NCI-H226 and in the assay with NCI-H460 were 450 nM and 70 nM, respectively. The pIC50 in [1] is 5.22.
Turning to `O=C(c1ccco1)N1CCc2cc(S(=O)(=O)N3CC(c4cccs4)NC3=O)ccc21` (centres undefined), the GI50 in the assay on A549 amounted to 60 nM; with HCT-116 it was 70 nM; with NCI-H460 it was 60 nM. This molecule showed a pIC50 in [1] of 5.40.
As to `O=C(NC1CCCCC1)N1CCc2cc(S(=O)(=O)N3C[C@H](c4ccccc4)NC3=O)ccc21`, the GI50 in the assay on A549 turned out to be 60 nM; in the assay with A498, 700 nM; in the assay with HCT-15 it was 120 nM; with MCF7 it was 150 nM; in the assay with NCI/ADR-RES, 1300 nM; in the assay on HCT-116 it was 50 nM. Also, the GI50 stood at 150 nM with NCI-H226 and 80 nM in the assay with NCI-H460. Moreover, in [1], the pIC50 is 5.70.
As to `Nc1ccc(C(=O)N2CCc3cc(S(=O)(=O)N4CC(c5cccs5)NC4=O)ccc32)cc1` (centres undefined), the figures for the GI50 in the assay with A549, in the assay with HCT-116 and with NCI-H460 were 180 nM, 300 nM and 250 nM, respectively. In assay [1], this molecule had a pIC50 of 4.98.
As for `O=C(CNc1ccccc1)N1CCc2cc(S(=O)(=O)N3C[C@H](c4ccccc4)NC3=O)ccc21`, the GI50 in the assay with A549 worked out at 80 nM; in the assay on A498, 150 nM; in the assay with HCT-15 it was 100 nM; in the assay on MCF7 it was 150 nM; with NCI/ADR-RES, 180 nM; in the assay with HCT-116, 50 nM. The GI50 in the assay on NCI-H226 and in the assay with NCI-H460 was 150 nM in each case. The molecule further showed a pIC50 in [1] of 5.46.
Turning to `CN1CCN(CCOC(=O)N2CCc3cc(S(=O)(=O)N4C[C@H](c5ccccc5)NC4=O)ccc32)CC1`, the GI50 in the assay with A549 was determined as 1000 nM; in the assay with HCT-116, 1000 nM; in the assay on NCI-H460 it was 900 nM. This molecule also gave a pIC50 in assay [1] of 4.52.
Turning to `CC[C@]1(O)C[C@H]2CN(CCc3c([nH]c4ccccc34)[C@@](C(=O)OC)(c3cc4c(cc3OC)N(C=O)[C@H]3[C@@](O)(C(=O)OC)[C@H](OC(C)=O)[C@]5(CC)C=CCN6CC[C@]43[C@@H]65)C2)C1` [VINCRISTINE], the GI50 worked out at 20 nM in the assay on A549, 1 nM with HCT-116 and 3 nM in the assay with NCI-H460.
The corresponding values for `Nc1ccc(C(=O)N2CCc3cc(S(=O)(=O)N4CC(c5ccc(F)cc5)NC4=O)ccc32)cc1` (centres undefined) are 1200 nM, 1100 nM and 900 nM.

The record behind these values is ChEMBL document CHEMBL1138726, “Novel diarylsulfonylurea derivatives as potent antimitotic agents” (Bioorg Med Chem Lett, 2004).
